Experimental data published in US20090270342A1, “IMMUNOREGULATORY AGENT” (priority 2006, published 2009).

Legend:
[1] = tested on: anti-OVA-IgE, IgG1, IgG2a in serum; test: Induction of anti-OVA antibodies by third OVA sensitization in already sensitive mice (Experiment 7); assay type: in vivo; settings: for Anti-OVA-IgE in serum / Anti-OVA-IgG1 in serum / Anti-OVA-IgG2a in serum: two weeks after third sensitization of OVA-sensitive mice; for Anti-OVA-IgE in serum, relative to control / Anti-OVA-IgG1 in serum, relative to control / Anti-OVA-IgG2a in serum, relative to control: after third sensitization
Protocol: In order to investigate the effect of lactosucorse on systemic immunity, antibody level in serum was measured. Similarly as in Experiment 1, female BALB/c mice (six weeks old) were preliminary reared for one week on “AIN-93G”, the same standard purified diet as used in Experiment 1. Successively, “NYU-KA OLIGO 700”, a saccharide composition comprising 71.4% (w/w), on a dry solid basis, of lactosucrose commercialized by Hayashibara Shoji Inc., Okayama, Japan, was incorporated into the above purified diet, in which corn starch equal to the amount of the saccharide composition comprising lactosucrose had been removed, to give a lactosucrose content of 2% (w/w) or 5% (w/w), and five to seven mice/group were allowed to ingest the resulting test diet freely. Mice, allowed to ingest “AIN-93G”, as the standard purified diet, were used as control. At 10 days after from starting the administration of the test diet, mice were sensitized to antigen by administrating 20 μg of ovalbumin (OVA) (grade V, commercialized by Sigma Corporation) as antigen and 4.5 mg of “IMJECT®”, alum commercialized by Pierce ThermoScientific as adjuvant, into the peritoneal cavity. Successively, 15 days after from the first sensitization, the second sensitization was carried out by the same procedure. The blood was collected from caudal vein of mice at one, two, and three weeks after from the second sensitization, the serum was collected by centrifugation, and the amount of IgE to OVA was measured by EIA. In the cases of IgG1 and IgG2a, the amount of antibody was measured using serum collected at two weeks after from the second sensitization. The IgE and IgG2a titers were measured by capture EIA and IgG1 titer was measured by indirect EIA. Each titer was calculated by calibration curve prepared by using anti-OVA mouse serum (IgE: 1.760 U/ml, IgG1: 128,000 U/ml, IgG2a: 7,040 u/ml) as a standard serum. The amounts of IgE at one, two, or three weeks after from the second sensitization are in Table 5, and the amounts of IgG1 and IgG2a of two weeks after from the second sensitization are in Table 6. The percentages in parentheses in tables mean a relative value to the antibody concentration in serum of the control mice.
Considering the application of lactosucrose to allergic patients, mice which had been made sensitive to OVA by sensitizing with OVA were prepared and the suppressing effect of lactosucrose on the production of anti-OVA-IgE when exposed to OVA was investigated by allowing the above mice to ingest lactosucrose. Female BALB/c mice (six weeks old, five mice/group) were preliminary reared for one week on “AIN-93G”, the same standard purified diet as used in Experiment 1. Successively, similarly as in Experiment 4, 20 μg of OVA, and 4.5 mg of alum were administrated to the peritoneal cavity of the mice and further reared for two weeks on the above standard diet. Then, the second sensitization of OVA and alum was carried out by the same procedure as used in the first sensitization. After two weeks, the mice were reared for further six weeks on the test diet comprising 2% (w/w) or 5% (w/w) lactosucrose, used in Experiment 1. After checking the mice being sensitive to OVA by measuring the amount of IgE, OVA and alum were administrated to them by the same procedure as used in the first and second sensitizations. After rearing two weeks on the test diet, blood was collected from respective mice and the concentrations of anti-OVA-IgE, anti-OVA-IgG1, and anti-OVA-IgG2a were determined by the same method as used in Experiment 4.

spleen cells = test: Cytokine production by spleen cells of OVA-sensitized mice restimulated with OVA (Experiment 6); assay type: in vivo
Protocol: In order to investigate the effect of lactosucrose on systemic immunity, the ability for producing cytokines of spleen cells was measured. At two weeks after the second sensitization in Experiment 4, spleens were removed from the mice of the control group and the group administrated with lactosucrose and the spleen cells were adjusted to give a cell concentration of 1×10^7/ml, and then placed in a 24-well plate. At two days or four days after adding 50 μg/ml of OVA, the amounts of IFN-γ, interleukin-2 (IL-2), IL-4, interleukin-5 (IL-5), and IL-10 in the culture supernatant were determined by conventional EIAs using antibodies (commercialized by BD-Pharmingen) corresponding to those. The percentages in parentheses in Table 9 mean relative values to the concentrations of respective cytokines produced by spleen cells from the control mice.

[2] = Lactosucrose 5% (w/w), listed as lactosucrose
[3] = Lactosucrose 5% (w/w) diet, 2 days after adding 50 μg/ml OVA
[4] = Lactosucrose 5% (w/w) diet, 4 days after adding 50 μg/ml OVA
[5] = Lactosucrose 5% (w/w), 2 days after
[6] = Lactosucrose 5% (w/w), 4 days after

For `OC[C@H]1O[C@@H](O[C@H]2[C@H](O)[C@@H](O)[C@@H](O[C@]3(CO)O[C@H](CO)[C@@H](O)[C@@H]3O)O[C@@H]2CO)[C@H](O)[C@@H](O)[C@H]1O` [Lactosucrose, β-D-galactosyl-(1,4)-α-D-glucosyl-(1,2)-β-D-fructoside], the Anti-OVA-IgE in serum ([1]; Lactosucrose 2% (w/w) diet) was 1,450 ± 561 U/ml, the Anti-OVA-IgG1 in serum ([1]; Lactosucrose 2% (w/w) diet) was 678 ± 176 ×10^4 U/ml and the Anti-OVA-IgG2a in serum ([1]; Lactosucrose 2% (w/w) diet) was 12.4 ± 5.02 ×10^4 U/ml. The “Anti-OVA-IgE in serum, relative to control” value ([1]; Lactosucrose 2% (w/w)) was “(72%)”, the “Anti-OVA-IgG1 in serum, relative to control” value ([1]; Lactosucrose 2% (w/w)) was “(111%)” and the “Anti-OVA-IgG2a in serum, relative to control” value ([1]; Lactosucrose 2% (w/w)) was “(120%)”. For the same molecule, the “Anti-OVA-IgE in serum, relative to control” value ([1]; Lactosucrose 2% (w/w), listed as lactosucrose) was 72%, the Anti-OVA-IgE in serum ([1]; Lactosucrose 5% (w/w) diet) was 1,250 ± 264 U/ml and the Anti-OVA-IgG1 in serum ([1]; Lactosucrose 5% (w/w) diet) was 365 ± 35.1 ×10^4 U/ml. The Anti-OVA-IgG2a in serum ([1]; Lactosucrose 5% (w/w) diet) was 5.77 ± 1.93 ×10^4 U/ml, the “Anti-OVA-IgE in serum, relative to control” value ([1]; Lactosucrose 5% (w/w)) was “(62%)” and the “Anti-OVA-IgG1 in serum, relative to control” value ([1]; Lactosucrose 5% (w/w)) was “(60%)”. For the same molecule, the “Anti-OVA-IgG2a in serum, relative to control” value ([1]; Lactosucrose 5% (w/w)) was “(56%)”, the “Anti-OVA-IgE in serum, relative to control” value [1, 2] was 62% and the “Anti-OVA-IgG1 in serum, relative to control” value [1, 2] was “about 50%”. For the same molecule, the “Anti-OVA-IgG2a in serum, relative to control” value [1, 2] was “about 50%”, the “IFN-γ produced by spleen cells” value (spleen cells; [3]) was 1.1 ± 0.19 IU/ml and the “IL-2 produced by spleen cells” value (spleen cells; [3]) was 290 ± 160 pg/mL. The “IL-4 produced by spleen cells” value (spleen cells; [3]) was 32 ± 10 pg/mL, the “IL-10 produced by spleen cells” value (spleen cells; [3]) was 0.83 ± 0.27 ng/mL and the “IFN-γ produced by spleen cells” value (spleen cells; [4]) was 2.9 ± 0.91 IU/ml. For the same molecule, the “IL-4 produced by spleen cells” value (spleen cells; [4]) was 62 ± 31 pg/mL, the “IL-5 produced by spleen cells” value (spleen cells; [4]) was 1.3 ± 0.32 ng/mL and the “IL-10 produced by spleen cells” value (spleen cells; [4]) was 2.7 ± 0.32 ng/mL. For the same molecule, the “IFN-γ produced by spleen cells, relative value to control” value (spleen cells; [5]) was “(113%)”, the “IL-2 produced by spleen cells, relative value to control” value (spleen cells; [5]) was “(78%)” and the “IL-4 produced by spleen cells, relative value to control” value (spleen cells; [5]) was “(107%)”. For the same molecule, the “IL-10 produced by spleen cells, relative value to control” value (spleen cells; [5]) was “(126%)”, the “IFN-γ produced by spleen cells, relative value to control” value (spleen cells; [6]) was “(88%)” and the “IL-4 produced by spleen cells, relative value to control” value (spleen cells; [6]) was “(63%)”. The “IL-5 produced by spleen cells, relative value to control” value (spleen cells; [6]) was “(81%)” and the “IL-10 produced by spleen cells, relative value to control” value (spleen cells; [6]) was “(123%)”.
